The text below walks through data of PMC8421360, “Spectroscopic glimpses of the transition state of ATP hydrolysis trapped in a bacterial DnaB helicase” (Nature Communications, 2021).

The structures appear in SMILES notation.

In this test the target is T1, HpDnaB (Helicobacter pylori, UniProt O25916).
T1 construct: gene dnaB; recombinant in E. coli BL21 Star (DE3), pACYC-duet1 (NdeI/XhoI); monomer 59 kDa; closed hexamer proposed with DNA, dodecamer in crystal 4ZC0
T1 sequence (O25916 1-488): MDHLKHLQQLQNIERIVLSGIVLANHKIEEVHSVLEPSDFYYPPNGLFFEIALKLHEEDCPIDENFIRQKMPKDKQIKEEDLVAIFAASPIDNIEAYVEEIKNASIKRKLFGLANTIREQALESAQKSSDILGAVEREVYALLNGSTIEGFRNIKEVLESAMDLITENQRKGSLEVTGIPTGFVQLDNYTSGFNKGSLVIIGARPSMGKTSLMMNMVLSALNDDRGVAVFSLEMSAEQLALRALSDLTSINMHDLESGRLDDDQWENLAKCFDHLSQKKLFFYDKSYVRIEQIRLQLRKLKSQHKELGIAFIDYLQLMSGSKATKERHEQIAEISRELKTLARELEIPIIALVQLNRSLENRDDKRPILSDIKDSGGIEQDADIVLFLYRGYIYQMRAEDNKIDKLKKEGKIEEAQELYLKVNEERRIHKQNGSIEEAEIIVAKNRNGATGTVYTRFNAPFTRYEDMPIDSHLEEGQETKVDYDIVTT
As to the kind of experiment: proton-detected […],1H solid-state NMR (hPH, […] kHz MAS); Mn2+ EDNMR/ENDOR. Type of test: binding. As to conditions: as ADP:AlF4- complex; Mg2+ and (dT)20 for hPH NMR, Mn2+ without DNA for EPR; pH 7.5; Walker A nucleotide site (S206, G208, K209, T210, S211).

`Nc1ncnc2c1ncn2[C@@H]1O[C@H](COP(=O)(O)OP(=O)(O)O)[C@@H](O)[C@H]1O` [ADP]: the “proton-detected 31P,1H solid-state NMR (hPH, 105 kHz MAS); Mn2+ EDNMR/ENDOR” value is “spatial correlations between Pβ of ADP and S206, G208, K209 and T210”.
